The test system of data set [1] is P. falciparum (multidrug resistance strain K1). On the set-up: method as in PMID 24242110. As to conditions: cited from earlier work.
In data set [2] the test system is Plasmodium falciparum (intra erythrocytic forms, NF54 IEF strain). Put plainly: In vitro activity against P. falciparum intra-erythrocytic forms (NF54). In kind it is cell-based. As to conditions: NF54, read-out: IC50 Pf (crude extracts).
The subject of data set [3] is Leishmania donovani (amastigotes, MHOM-ET-67/L82 strain). Put plainly: In vitro activity against L. donovani amastigotes (MHOM-ET-67/L82). The conditions noted are these: Table 1, MHOM-ET-67/L82 amastigotes, values marked a: only one replicate, others mean of two ± SD, read-out: IC50 Ldon (crude extracts). In kind it is cell-based.
Data set [4] relates to P. falciparum chloroquine sensitive strain PoW. On the set-up: method as in PMID 12601673. As to conditions: cited from earlier work.
Data set [5] concerns P. falciparum chloroquine-resistant strain Dd2. More on the design: method as in PMID 12601673. As to conditions: cited from earlier work.
Data set [6] is described as follows: Cytotoxicity test against mammalian cells (L6). The conditions noted are these: rat.
For data set [7], the system named is Trypanosoma brucei rhodesiense (bloodstream trypomastigotes, STIB 900 strain). The data set can be described thus: In vitro activity against T. b. rhodesiense bloodstream trypomastigotes (STIB 900). As to conditions: for SI (selectivity index): ratio of cytotoxic (L6) over antiprotozoal (Tbr) IC50 values. In kind it is cell-based.
Where [8] appears, read: Trypanosoma brucei, Table 3, STIB 900 trypomastigotes, pure compounds, read-out: IC50 Tbr (elemanolides), value in brackets (converted).
Where [9] appears, read: Trypanosoma brucei, Table 3, STIB 900 trypomastigotes, read-out: IC50 Tbr (elemanolides).
Setting [10] is: Table 3, STIB 900 trypomastigotes, pure compounds, read-out: IC50 Tbr (elemanolides), value in brackets (converted).

Values after ≈ are worked out from the molar mass of the structure shown. Values joined by “and” are separate entries in the source; they are usually repeats but may differ in a detail not shown here. Identical values can stand only once. Like-named read-outs stand apart in the source and are kept apart here.

In the case of `C=C[C@@]12COC(=O)C(=C)[C@@H]1[C@H]1OC(=O)C(=C)[C@@H]1[C@@H](OC(=O)C(=C)CO)C2` [Compound 5, Vernodalin], in data set [1], the “IC50 anti-plasmodial activity, P. falciparum K1” value was 4.0 µg/mL (≈ 11.1 µM).

On to `CCN(CC)CCCC(C)Nc1ccnc2cc(Cl)ccc12` (stereo not drawn) [chloroquine], for which the IC50 in data set [2] turned out to be 0.002 µg/mL (≈ 0.00625 µM).

With `CCCCCCCCCCCCCCCCOP(=O)([O-])OCC[N+](C)(C)C` [miltefosine], the IC50 in data set [3] was 0.091 ± 0.07 µg/mL (≈ 0.223 µM).

Regarding 11,13-Dihydrovernodalin [Compound 6], the “IC50 P. falciparum PoW” value in data set [4] is reported as 2.3 µg/mL. Moreover, the “IC50 P. falciparum Dd2” value in data set [5] is on record as 1.1 µg/mL.

For `C=C[C@@]12COC(=O)C(=C)[C@@H]1[C@@H](O)[C@@H]1C(=C)C(=O)O[C@H]1C2` [Compound 3, Vernomenin], the IC50 in data set [6] is 0.62 µg/mL and 2.26 µM; in data set [7] (setting [8]) it was 508 nM; in data set [7] (setting [9]), 0.14 ± 0.1 µg/mL. Further, the “SI (selectivity index)” value in data set [7] was 4.50.

`COc1cc([C@@H]2c3cc4c(cc3[C@H](O)[C@H]3COC(=O)[C@H]23)OCO4)cc(OC)c1OC` [podophyllotoxin, reference compound] displayed a half-inhibitory concentration (IC50) in data set [6] of 0.007 ± 0.001 µg/mL (≈ 0.0169 µM).

For `C=C[C@@]12COC(=O)C(=C)[C@@H]1[C@H]1OC(=O)C(=C)[C@@H]1[C@@H](O)C2` [Compound 2, Vernolepin], the IC50 was 0.735 µg/mL and 2.68 µM in data set [6]; 185 nM in data set [7] (setting [10]); 190 nM in data set [7] (setting [8]); 0.05 µg/mL in data set [7] (setting [9]). In addition, in data set [7] (Table 3, STIB 900 trypomastigotes), the “IC50 Tbr (elemanolides)” value stood at 0.051 ± 0.035 µg/mL (≈ 0.185 µM). The “SI (selectivity index)” value in data set [7] was found to be 14.5. For the same compound, the “times more active than the crude extract (Tbr)” value in data set [7] (versus DCM crude extract) is given as “approximately 3.5”.

With `C=CC12COC(=O)C(=C)C1C(O)C(C(=C)C(=O)OC)C(O)C2` (stereo not drawn) [Compound 1, 8-Desacylvernodalol], the IC50 in data set [6] (L6 rat skeletal myoblast cells) was 10.7 µg/mL and 34.6 µM; in data set [7] (setting [10]), 2530 nM; in data set [7] (setting [8]) it was 2500 nM; in data set [7] (setting [9]), 0.779 ± 0.22 µg/mL. Further, the “SI (selectivity index)” value in data set [7] came out at 13.7.

In the case of `Nc1nc(N)nc(Nc2ccc([As]3SCC(CO)S3)cc2)n1` (stereo not drawn) [melarsoprol, reference compound], in data set [7] (Trypanosoma brucei, read-out: IC50 Tbr (crude extracts)), the IC50 amounted to 0.003 ± 0.001 µg/mL.

As to `C=C[C@@]12COC(=O)C(=C)[C@@H]1[C@@H](O)[C@H](C(=C)C(=O)OC)[C@@H](OC(=O)C(=C)CO)C2` [Compound 4, Vernodalol], in data set [1], the “IC50 anti-plasmodial activity, P. falciparum K1” value was 4.2 µg/mL (≈ 10.7 µM). Moreover, the IC50 was 1.44 µg/mL and 3.67 µM in data set [6] (L6 rat skeletal myoblast cells); 255 nM in data set [7] (setting [10]); 260 nM in data set [7] (setting [8]); 0.1 ± 0.041 µg/mL in data set [7] (setting [9]). In data set [7] (compound 4 versus compound 1), the “factor by which more active than compound 1 (Tbr)” value is given as around 10. In data set [7], the “SI (selectivity index)” value came out at 14.4.

Broadly, the IC50 is the concentration that inhibits the measured activity by half.

Values taken from publication PMC6154322, “Anti-Trypanosomatid Elemanolide Sesquiterpene Lactones from Vernonia lasiopus O. Hoffm ^†” (Molecules : A Journal of Synthetic Chemistry and Natural …, 2017).
